The values below come from patent publication US9084798B2, “Use of lanostane and Poria extract in treating diabetes” (Sinphar Tian-Li Pharmaceutical Co., Ltd (Hangzhou), priority 2009, dated 2015).

Assay [1] deals with GLUT4. The assay is described as follows: GLUT4 mRNA expression by real-time Q-PCR in 3T3-L1 adipocytes. The settings on record: 1 μM of PA, 24 hours. The format is cell-based, rodent. As to the method:
Real-time Q-PCR was performed in order to evaluate mRNA expression of GLUT proteins in 3T3-L1 adipocytes under different concentrations of triterpene compounds. Firstly, the fully differentiated 3T3-L1 adipocytes were mixed with different concentrations of triterpene compounds and left for 24 hours, before removing the cell culture medium and using the Trizol buffer (Invitrogen, Irvine, Calif., USA) to obtain total RNA from the cells. Afterwards, 1 μg of RNA sample was taken therefrom, and a High-Capacity cDNA Reverse Transcription Kit (Applied Biosystems, Darmstadt, Germany) was used to reverse transcribe mRNA in the sample into cDNA. Primers were specifically designed for GLUT1, GLUT4, and β-actin, and the SYBR Green Q-PCR analyzer (Applied Biosystems, Foster City, Calif., USA) was used to expand the gene for detection (Glut1 & 4) and reference gene (β-actin), before relative gene expression values were calculated by the ΔΔCT method using the StepOne v2.0 software (Applied Biosystems).

Assay [2] deals with 3T3-L1 adipocytes with suppressed GLUT4 expression (shG4-30). The experiment in a line: glucose uptake in adipocytes with suppressed mRNA expression of GLUT4 (shG4-30). In kind it is cell-based, rodent. The settings on record: different doses of PA. The source says: A viral carrier (TRCN0000043630 shRNA, Genomics Research Center, Academia Sinica, R.O.C.) carrying GLUT4-inhibiting RNA was used to infect the 3T3-L1 preadipocytes (shG4-30), in order to create a gene expression having consistent inhibition of GLUT4 expression, and the cell strain was allowed to further differentiate, from which the differentiated adipocytes were used for the experiments.
For the experiment of testing the effects of triterpene compounds on enhancing glucose uptake by 3T3-L1 adipocytes, 3T3-L1 preadipocytes were cultured on 6-well culture dishes, and allowed to grow fully therein before being subjected to differentiation by a differentiation-inducing agent. […] Subsequently, the cells were dissolved in 0.2 ml of 0.2% SDS, and 10 μL, of the solution with dissolved cells was transferred into UniFilter plates (Perkim-Elmer, Wellesley, Mass., USA) with filtering bases and dried in a vacuum oven at 37° C., in which each well was added with 30 μL of counting solution, and then analyzed by using a micro-disk liquid scintillation analyzer (TopCount, Packard NXT, Packard BioScience Company, Meriden, Conn., USA). The glucose concentration accumulated in the cells was calculated, and divided by the protein concentration, so as to obtain a glucose uptake rate indicated as nanomoles of glucose uptake in every microgram of cell proteins at every minute (nmol/min/mg). […]

The test system of assay [3] is GLUT4. The experiment in a line: GLUT4 translocation to plasma membrane, centrifugation fractions and Western blot. The format is cell-based, rodent. Conditions: 2 hours. Here is the method: In the mechanism of insulin enhancing glucose uptake by adipocytes or muscle cells, the translocation of GLUT4 from intracellular organelles to plasma membrane (PM) actually plays a vital rol therein, thus the effects of triterpene compounds on enhancing the translocation of GLUT4 to plasma membrane in 3T3-L1 adipocytes were tested here. The differentiated and mature 3T3-L1 adipocytes were cultured overnight in a serum-free cell culture medium, and then further cultured in serum-free cell culture media containing different concentrations of triterpene compounds for 2 hours. This was followed by high-speed centrifugation at different rotation speeds (16,000 g-200,000 g) in order to separate the cellular plasma membrane fraction from the low density microsome (LDM) [Liu, L. Z. et. al.; Mol. Biol. Cell 17, (5), 2322-2330, 2006]. Western blot analysis was performed by using a monoclonal antibody for GLUT4, so as to observe whether there are any effects from different concentrations of triterpene compounds on the translocation of GLUT4 from cellular LDM to PM in 3T3-L1 adipocytes.

In assay [4] the test system is 3T3-L1 adipocytes. The experiment in a line: accumulation of triglycerides in 3T3-L1 adipocytes (Oil-Red O staining). In kind it is cell-based, rodent. The settings on record: 24 hours after administering different doses of PA. Here is the method: (§1) For the experiment of testing the effects of triterpene compounds on the accumulation of triglycerides and the release of glycerol in 3T3-L1 adipocytes, the differentiated and mature 3T3-L1 adipocytes were cultivated overnight in a serum-free cell culture medium, and then further cultivated in serum-free cell culture media containing different concentrations of triterpene compounds for 24 hours. The culture media were collected and tested for the release of glycerol by using a glycerol assay kit (Randox Laboratories, Antrim, UK), to determine whether different concentrations of triterpene compounds had any effects on the release of glycerol from lipid breakdown in 3T3-L1 adipocytes. The level of triglycerides in the adipocytes were determined by Oil-Red O staining (Ramirez-Zacarias, J. L. et. al.; Histochemistry 97, (6), 493-497, 1992). The oil droplets formed by the accumulation of lipids in the cells were stained, rinsed twice with 60% isopropanol, and then extracted in 100% isopropanol before being quantified at the absorbance of 490 nm. The readings were compared with that from the adipocytes without being given triterpene compounds, in order to evaluate the effects of different concentrations of triterpene compounds on the accumulation of triglycerides in the adipocytes.

Assay [5] concerns 3T3-L1 adipocytes. The assay is described as follows: release of glycerol from 3T3-L1 adipocytes (glycerol assay kit). The format is cell-based, rodent. The settings on record: 24 hours after administering different doses of PA. As to the method: as §1
For assay [6], the system named is 3T3-L1 adipocytes. The assay is described as follows: 2-deoxy-glucose uptake in differentiated mature 3T3-L1 adipocytes. The format is cell-based, rodent. As to the method: (§2) 3T3-L1 preadipocytes were cultured in Dulbecco's minimal essential medium (DMEM) supplemented with 100 IU/mL penicillin, 100 µg/mL streptomycin, 1% nonessential amino acid and 10% calf serum in 5% CO2 and 95% Air at 37° C. Once the cells have become fully grown, differentiation was induced by treating the cells with differentiation inducers (DMEM containing 0.5 mM 3-isobutyl-1-methylxanthane (IBMX), 1 µM dexamethasone, […], and 10% fetal bovine serum) for two days. The cells were re-fed with DMEM supplemented with 10 µg/mL insulin and 10% FBS for another two days, and then changed to 10% FBS/DMEM without insulin every 2 days for 4-6 days. At this stage, near 90% of the cells expressed the adipocyte phenotype and were ready for the experiments. Before commencing the experiments, the 3T3-L1 cells were rinsed with PBS solution first, and then cultured overnight in the serum-free and insulin-free 0.2% BSA/DMEM culture medium, so as to remove interferences from both serum and insulin.
For the experiment of testing the effects of triterpene compounds on enhancing glucose uptake by 3T3-L1 adipocytes, 3T3-L1 preadipocytes were cultured on 6-well culture dishes, and allowed to grow fully therein before being subjected to differentiation by a differentiation-inducing agent. Once the 3T3-L1 cells became matured and differentiated into adipocytes after 7-12 days, the cells were used for testing glucose uptake. Said adipocytes were firstly placed in a serum-free culture medium (0.2% BSA/DMEM) overnight, followed by cultivation for 2-6 hours in serum-free cell culture media containing different concentrations of triterpene compounds, and then rinsed once with PBS solution before undergoing cultivation in KRP buffer (20 mM HEPES, 137 mM NaCl, 4.7 mM KCl, 1.2 mM MgSO4, 1.2 mM KH2PO4, 2.5 mM CaCl2, and 2 mM pyruvate, pH 7.4 and 0.2% BSA) at 37° C. for 3 hours. Finally, 0.2 μCi/mL of 2-deoxy-D-[^14C]-glucose (2-DG, Amersham Biosciences, Little Chalfont, Bucks, U.K) and 0.2 ml of non-radioactive glucose buffer derived from 0.1 mM 2-DG were used as a substitute for KRP buffer in order to begin the experiment on glucose uptake. After allowing the experiment to run for […], the cells were removed and rinsed with PBS solution to terminate the intake of glucose. Subsequently, the cells were dissolved in 0.2 ml of 0.2% SDS, and 10 μL, of the solution with dissolved cells was transferred into UniFilter plates (Perkim-Elmer, Wellesley, Mass., USA) with filtering bases and dried in a vacuum oven at 37° C., in which each well was added with 30 μL of counting solution, and then analyzed by using a micro-disk liquid scintillation analyzer (TopCount, Packard NXT, Packard BioScience Company, Meriden, Conn., USA). The glucose concentration accumulated in the cells was calculated, and divided by the protein concentration, so as to obtain a glucose uptake rate indicated as nanomoles of glucose uptake in every microgram of cell proteins at every minute (nmol/min/mg). The protein concentration was determined by using the standard Bicinchoninic acid (BCA) protein assay kit (Pierce, Rockford, Ill., USA). The uptake of non-specific glucose was determined by adding 0.2 μCi of L-[14C]-glucose, and then used to substract from the value obtained by the analyzer so as to get a value for the uptake of specific glucose. Therefore, the effects of different concentrations of triterpene compounds on the glucose uptake by 3T3-L1 adipocytes could be determined.

The subject of the next assay is 3T3-L1 preadipocytes. The assay is described as follows: 2-deoxy-glucose uptake in 3T3-L1 preadipocytes. In kind it is cell-based, rodent. Here is the method:
as §2, with “Before commencing the experiments, the 3T3-L1 cells were rinsed with PBS solution first, and then cultured overnight in the serum-free and insulin-free 0.2% BSA/DMEM culture medium, so as to remove interferences from both serum and insulin.” left out
For the experiment of testing the effects of triterpene compounds on enhancing glucose uptake by 3T3-L1 adipocytes, 3T3-L1 preadipocytes were cultured on 6-well culture dishes, and allowed to grow fully therein before being subjected to differentiation by a differentiation-inducing agent. […] The glucose concentration accumulated in the cells was calculated, and divided by the protein concentration, so as to obtain a glucose uptake rate indicated as nanomoles of glucose uptake in every microgram of cell proteins at every minute (nmol/min/mg). […]

For assay [7], the system named is GLUT4. The assay is described as follows: GLUT4 protein expression by Western blot in 3T3-L1 adipocytes. In kind it is cell-based, rodent. Conditions: different doses of PA for 24 hours. Here is the method:
For the experiment of testing the effects of triterpene compounds on enhancing the GLUT protein expression in 3T3-L1 adipocytes, the aforesaid differentiated and mature 3T3-L1 adipocytes were cultured overnight in a serum-free cell culture medium, and then further cultured in serum-free cell culture media containing different concentrations of triterpene compounds for 24 hours. This was followed by rinsing the cells with PBS solution, and allowing the cells to lyse in 0.2 mL lysis buffer (1% NP-40, 150 mM NaCl, 0.1% SDS, 50 mM Tris-HCl pH 7.6, 10 mM EDTA, 0.5% deoxycholate, 1 mM PMSF, 1 mM Na3VO4, 10 mM NaF, 10 mM β-glycerophosphate, 10 g/mL protease inhibitor and phosphotase inhibitor cocktails) for 30 min at 4° C. An equal amount of protein from each sample was separated by sodium dodecyl sulfate (SDS)-10% polyacrylamide gel electrophoresis (PAGE) and transblotted onto polyvinylidene difluoride (PVDF) membranes (Millipore, Bedford, Mass., USA). […] Each sample of proteins was treated with a chemiluminescence kit (ECL, Amersham, U.K.) before being exposed and processed into X-ray film, and then quantitatively analyzed by using computer software.
Background: Immunoblotting shows a protein as a band on a membrane.

A further assay relates to HA-GLUT4-GFP. The assay is described as follows: GLUT4 translocation to plasma membrane, HA-GLUT4-GFP fluorescence ratio. The format is cell-based, rodent. The settings on record: 1.0 μM of PA, 2 hours; rhodamine/GFP fluorescence ratio.
A further assay relates to in vitro adipocytes. Conditions: cited from earlier work.
In a further assay the test system is mice. Conditions: cited from earlier work.
[8] abbreviates: 0.01 μM, two hours after giving the compound, versus untreated control.

As for `C=C(CC[C@@H](C(=O)O)[C@H]1[C@H](O)C[C@@]2(C)C3=C(CC[C@]12C)[C@@]1(C)CC[C@H](OC(C)=O)C(C)(C)[C@@H]1CC3)C(C)C` [PA, pachymic acid], the “gene expression of GLUT4 elevated to (FIG. 6)” value in the assay with GLUT4 [1] was 228%. Moreover, the “glucose uptake in adipocytes with low expression of GLUT4 (FIG. 7B)” value in [2] was “did not greatly enhance the glucose uptake”. Besides, the “amount of GLUT4 in the plasma membrane increased to (FIG. 8A)” value is listed as 141% with GLUT4 [3] (0.01 μM of PA) and 328% in the assay with GLUT4 [3] (1 μM of PA). In the assay with 3T3-L1 adipocytes [4], the “accumulation of triglycerides (FIG. 9)” value is given as “exceeded 137%”. In addition, in the assay with 3T3-L1 adipocytes [5], the “release of glycerol lowered to” value is listed as “approximately 70 % of the original level”. Besides, the “glucose uptake increased to” value is reported as 165.89% in the assay on 3T3-L1 adipocytes [6] (setting [8]) and 209.84% with 3T3-L1 adipocytes [6] (PA at 1 μM, acting two hours). Also, the “enhancement of glucose uptake (FIG. 4)” value in the assay with 3T3-L1 adipocytes [6] (differentiated adipocytes) is “only effective for enhancing glucose uptake in differentiated adipocytes”; with 3T3-L1 preadipocytes it was “not for preadipocytes”. For the same compound, the “protein expression of GLUT4 (FIG. 5)” value in the assay on GLUT4 [7] is “effective for enhancing the protein expression of GLUT4”. For the same compound, the “translocation of GLUT4 to plasma membrane elevated (FIG. 8B)” value with HA-GLUT4-GFP was 2.71 fold.
Regarding `C=C(CC[C@@H](C(=O)O)[C@H]1[C@H](O)C[C@@]2(C)C3=CC[C@H]4C(C)(C)C(=O)CC[C@]4(C)C3=CC[C@]12C)C(C)C` [PPA, polyporenic acid C], the “glucose uptake increased to” value with 3T3-L1 adipocytes [6] (setting [8]) is recorded as 147.9%.
As for `C=C(CC[C@@H](C(=O)O)[C@H]1[C@H](O)C[C@@]2(C)C3=C(CC[C@]12C)[C@@]1(C)CC[C@H](O)C(C)(C)[C@@H]1CC3)C(C)C` [TA, tumulosic acid], in the assay with 3T3-L1 adipocytes [6] (setting [8]), the “glucose uptake increased to” value was 142.5%.
On to `CC(C)=CCC[C@@H](C(=O)O)[C@H]1CC[C@@]2(C)C3=CC[C@H]4C(C)(C)[C@@H](O)CC[C@]4(C)C3=CC[C@]12C` [dehydrotrametenolic acid], for which, in the assay on in vitro adipocytes, the effective concentration is 10^−5 M. The effective dose with mice (mice) is given as 110 mg/kg. Also, the “effective dose for use in the human body” value in the assay with mice (researchers' conclusion from the mouse dose) is “more than 700 mg”.
For `O=C(CCc1ccc(O)cc1)c1c(O)cc(O)cc1O` [phloretin (PT), phloretin, reference compound], the “glucose uptake after phloretin (FIG. 4)” value in the assay with 3T3-L1 adipocytes [6] (adipocytes) and with 3T3-L1 preadipocytes was “significantly inhibited” throughout.
For the compound insulin [reference compound], the “effect on glucose uptake” value with 3T3-L1 adipocytes [6] (100 nM insulin) was “effective for increasing glucose uptake”.
